Reference: US8030498B2, “Benzoylpyrazole compounds and herbicides containing them” (Ishihara Sangyo Kaisha, Ltd., priority 2005, dated 2011)

How the values were obtained:
corn (Zea mays L.) = experiment: Test Example 1: foliar treatment, growth inhibition rate, corn; format: in vivo; settings: visually observed 17th to 23rd day after application; for pest or weed control at 31 g/ha: Zea mays, 31 g/ha active ingredient
Text: (§1) Upland field soil was put into a 1/170,000 hectare pot, and seeds of various plants were sown. When the respective plants reached predetermined leaf stage ((1) barnyardgrass (Echinochloa crus-galli L.); 0.8 to 2.5 leaf stage, (2) crabgrass (Digitaria sanguinalis L.): 0.5 to 3.0 leaf stage, (3) greenfoxtail (Setaria viridis L.): 1.0 to 3.0 leaf stage, (4) redroot pigweed (Amaranthus retroflexus L.): cotyledon stage to 2.0 leaf stage, (5) prickly sida (Sida spinosa L.): cotyledon stage to 1.1 leaf stage, (6) velvetleaf (Abutilon theophrasti MEDIC.): cotyledon stage to 1.5 leaf stage, (7) rice (Oryza sativa L.): 1.0 to 2.5 leaf stage, (8) wheat (Triticum spp.): 1.7 to 3.4 leaf stage, (9) corn (Zea mays L.): 2.0 to 3.5 leaf stage, and (10) soybean (Glycine max Merr.): primary leaf stage to 0.3 leaf stage), wettable powders or emulsifiable concentrates of the compounds of the present invention prepared in accordance with a conventional preparation method, were weighed so that the active ingredients became the prescribed amounts, and diluted with water in an amount corresponding to 500 liter per 1 hectare. 0.1 vol % of an agricultural spreader was further added to the respective diluted liquids, followed by foliar treatment with a small sprayer.
(§2) On the 17th to 23rd day after application, the state of growth of the respective plants was visually observed, and the herbicidal effect was evaluated in accordance with a growth inhibition rate (%) of 0 (equivalent to the non-treated area) to 100% (complete kill).

barnyardgrass = experiment: Test Example 2: soil application on the day after sowing, growth inhibition rate, barnyardgrass; format: in vivo, Echinochloa crus-galli L.; settings: 250 g/ha active ingredient, observed on 19th to 24th day; for inhibition at 250 g/ha: Echinochloa crus-galli
Text: (§3) Upland field soil was put into a 1/170,000 hectare pot, and seeds of various plants (barnyardgrass, crabgrass, greenfoxtail, redroot pigweed, prickly sida, velvetleaf, rice, wheat, corn and soybean) were sown. On the day after sowing, wettable powders or emulsifiable concentrates of the compounds of the present invention prepared in accordance with a conventional preparation method, were weighed so that the active ingredients became the prescribed amounts, and diluted with water in an amount corresponding to 500 liter per 1 hectare, followed by soil application with a small sprayer. On the 19th to 24th day after the application, the state of growth of the respective plants was visually observed, and the herbicidal effect was evaluated in accordance with a growth inhibition rate (%) of from 0 (equivalent to the non-treated area) to 100% (complete kill).

rice (Oryza sativa L.) = experiment: Test Example 1: foliar treatment, growth inhibition rate, rice; format: in vivo; settings: visually observed 17th to 23rd day after application; for pest or weed control at 31 g/ha: Oryza sativa, 31 g/ha active ingredient
Text: as §1, §2

prickly sida = experiment: Test Example 2: soil application on the day after sowing, growth inhibition rate, prickly sida; format: in vivo, Sida spinosa L.; settings: 250 g/ha active ingredient, observed on 19th to 24th day; for inhibition at 250 g/ha: Sida spinosa
Text: as §3

velvetleaf = experiment: Test Example 2: soil application on the day after sowing, growth inhibition rate, velvetleaf; format: in vivo, Abutilon theophrasti MEDIC.; settings: 250 g/ha active ingredient, observed on 19th to 24th day; for inhibition at 250 g/ha: Abutilon theophrasti
Text: as §3

corn = experiment: Test Example 2: soil application on the day after sowing, growth inhibition rate, corn; format: in vivo, Zea mays L.; settings: 250 g/ha active ingredient, observed on 19th to 24th day; for inhibition at 250 g/ha: Zea mays
Text: as §3

greenfoxtail = experiment: Test Example 2: soil application on the day after sowing, growth inhibition rate, greenfoxtail; format: in vivo, Setaria viridis L.; settings: 250 g/ha active ingredient, observed on 19th to 24th day; for inhibition at 250 g/ha: Setaria viridis
Text: as §3

rice = experiment: Test Example 2: soil application on the day after sowing, growth inhibition rate, rice; format: in vivo, Oryza sativa L.; settings: 250 g/ha active ingredient, observed on 19th to 24th day; for inhibition at 250 g/ha: Oryza sativa
Text: as §3

wheat (Triticum spp.) = experiment: Test Example 1: foliar treatment, growth inhibition rate, wheat; format: in vivo; settings: visually observed 17th to 23rd day after application; for pest or weed control at 31 g/ha: Triticum, 31 g/ha active ingredient
Text: as §1, §2

[1] = test system: greenfoxtail (Setaria viridis L.); experiment: Test Example 1: foliar treatment, growth inhibition rate, greenfoxtail; format: in vivo; settings: visually observed 17th to 23rd day after application; for pest or weed control at 31 g/ha: Setaria viridis, 31 g/ha active ingredient
Text: as §1, §2

[2] = test system: soybean (Glycine max Merr.); experiment: Test Example 1: foliar treatment, growth inhibition rate, soybean; format: in vivo; settings: visually observed 17th to 23rd day after application
Text: as §1, §2

[3] = test system: velvetleaf (Abutilon theophrasti MEDIC.); experiment: Test Example 1: foliar treatment, growth inhibition rate, velvetleaf; format: in vivo; settings: visually observed 17th to 23rd day after application; for pest or weed control at 31 g/ha: Abutilon theophrasti, 31 g/ha active ingredient
Text: as §1, §2

crabgrass = experiment: Test Example 2: soil application on the day after sowing, growth inhibition rate, crabgrass; format: in vivo, Digitaria sanguinalis L.; settings: 250 g/ha active ingredient, observed on 19th to 24th day; for inhibition at 250 g/ha: Digitaria sanguinalis
Text: as §3

[4] = test system: prickly sida (Sida spinosa L.); experiment: Test Example 1: foliar treatment, growth inhibition rate, prickly sida; format: in vivo; settings: visually observed 17th to 23rd day after application
Text: as §1, §2

[5] = test system: crabgrass (Digitaria sanguinalis L.); experiment: Test Example 1: foliar treatment, growth inhibition rate, crabgrass; format: in vivo; settings: visually observed 17th to 23rd day after application; for pest or weed control at 31 g/ha: Digitaria sanguinalis, 31 g/ha active ingredient
Text: as §1, §2

wheat = experiment: Test Example 2: soil application on the day after sowing, growth inhibition rate, wheat; format: in vivo, Triticum spp.; settings: Triticum aestivum, 250 g/ha active ingredient, observed on 19th to 24th day
Text: as §3

[6] = test system: barnyardgrass (Echinochloa crus-galli L.); experiment: Test Example 1: foliar treatment, growth inhibition rate, barnyardgrass; format: in vivo; settings: visually observed 17th to 23rd day after application; for pest or weed control at 31 g/ha: Echinochloa crus-galli, 31 g/ha active ingredient
Text: as §1, §2

redroot pigweed = experiment: Test Example 2: soil application on the day after sowing, growth inhibition rate, redroot pigweed; format: in vivo, Amaranthus retroflexus L.; settings: 250 g/ha active ingredient, observed on 19th to 24th day; for inhibition at 250 g/ha: Amaranthus retroflexus
Text: as §3

[7] = test system: redroot pigweed (Amaranthus retroflexus L.); experiment: Test Example 1: foliar treatment, growth inhibition rate, redroot pigweed; format: in vivo; settings: visually observed 17th to 23rd day after application
Text: as §1, §2

soybean = experiment: Test Example 2: soil application on the day after sowing, growth inhibition rate, soybean; format: in vivo, Glycine max Merr.; settings: 250 g/ha active ingredient, observed on 19th to 24th day
Text: as §3

| SMILES | pest or weed control at 31 g/ha (corn (Zea mays L.)) | inhibition at 250 g/ha (barnyardgrass) | pest or weed control at 31 g/ha (rice (Oryza sativa L.)) | inhibition at 250 g/ha (prickly sida) | inhibition at 250 g/ha (velvetleaf) | inhibition at 250 g/ha (corn) | inhibition at 250 g/ha (greenfoxtail) | inhibition at 250 g/ha (rice) | pest or weed control at 31 g/ha (wheat (Triticum spp.)) | pest or weed control at 31 g/ha [1] | Growth inhibition rate (%) Soybean ([2]; 31 g/ha active ingredient) | pest or weed control at 31 g/ha [3] | inhibition at 250 g/ha (crabgrass) | Growth inhibition rate (%) Prickly sida ([4]; 31 g/ha active ingredient) | pest or weed control at 31 g/ha [5] | inhibition at 250 g/ha (wheat) | pest or weed control at 31 g/ha [6] | inhibition at 250 g/ha (redroot pigweed) | other results |
| --- | --- | --- | --- | --- | --- | --- | --- | --- | --- | --- | --- | --- | --- | --- | --- | --- | --- | --- | --- |
| CCSC(=O)Oc1c(C(=O)c2ccc(S(C)(=O)=O)c(OCCOC)c2C)cnn1CC [Compound No. 16, 5-(ethylthio)carbonyloxy-1-ethylpyrazol-4-yl 3-(2-methoxyethoxy)-2-methyl-4-(methylsulfonyl)phenyl ketone] | 0% | 100% | 90% | 10% | 0% | 0% | 98% | 98% | 0% | 100% | 95% | 100% | 100% | 40% | 100% | 0% | 100% | 100% |  |
| CCSC(=O)Oc1c(C(=O)c2ccc(S(C)(=O)=O)c(OCC(OC)OC)c2C)cnn1C [Compound No. 209, 5-(ethylthio)carbonyloxy-1-methylpyrazol-4-yl 3-(2,2-dimethoxyethoxy)-2-methyl-4-(methylsulfonyl)phenyl ketone] | 0% | 95% | 95% | 30% | 50% | 0% | 100% | 90% | 0% | 98% | 100% | 100% | 95% | 90% | 95% | 20% | 100% | 95% | Growth inhibition rate (%) redroot pigweed ([7]; 31 g/ha active ingredient): 98% |
| CCSC(=O)Oc1c(C(=O)c2ccc(S(C)(=O)=O)c(S(C)(=O)=O)c2Cl)cnn1C [compound 224] |  |  |  |  |  |  |  |  |  |  |  |  |  |  |  |  |  |  | Growth inhibition rate (%) Corn (corn (Zea mays L.); 63 g/ha active ingredient): 0%; Growth inhibition rate (%) Barnyardgrass (barnyardgrass): 100%; Growth inhibition rate (%) Rice (rice (Oryza sativa L.); 63 g/ha active ingredient): 20%; Growth inhibition rate (%) Prickly sida (prickly sida): 75%; Growth inhibition rate (%) Velvetleaf (velvetleaf): 70%; Growth inhibition rate (%) Corn (corn): 10%; Growth inhibition rate (%) Greenfoxtail (greenfoxtail): 98%; Growth inhibition rate (%) Soybean (soybean): 50%; Growth inhibition rate (%) Rice (rice): 98%; Growth inhibition rate (%) redroot pigweed ([7]; 63 g/ha active ingredient): 95%; Growth inhibition rate (%) Wheat (wheat (Triticum spp.); 63 g/ha active ingredient): 0%; Growth inhibition rate (%) Greenfoxtail ([1]; 63 g/ha active ingredient): 70%; Growth inhibition rate (%) Soybean ([2]; 63 g/ha active ingredient): 100%; Growth inhibition rate (%) Velvetleaf ([3]; 63 g/ha active ingredient): 60%; Growth inhibition rate (%) Crabgrass (crabgrass): 100%; Growth inhibition rate (%) Prickly sida ([4]; 63 g/ha active ingredient): 70%; Growth inhibition rate (%) Crabgrass ([5]; 63 g/ha active ingredient): 60%; Growth inhibition rate (%) Barnyardgrass ([6]; 63 g/ha active ingredient): 95%; Growth inhibition rate (%) redroot pigweed (redroot pigweed): 100% |
